In paper PMC12311729, “Probing the Mechanism of L‑DOPA 2,3-Dioxygenase Using Synthetic Derivatives of 3,4-Dihydroxyhydrocinnamic Acid” (ACS Omega, 2025):
“Also recorded” adds a separate entry of the source.

Key:
[1] = Cyclic voltammetry (redox potentials on a GCE); format: physicochemical; conditions: for E1/2 (mV) at pH 7.4 relative to L-DOPA x 100: percentage of the value for L-DOPA; for (E p)a Oxidation / (E p)c Reduction / E1/2 / Ipa/Ipc / ΔE p: GCE (d = 2 mm)
From the text: Reduction and oxidation potentials were experimentally performed by cyclic voltammetry (CV) at biological pH 7.4, as previously described. All samples were run on a CH Instruments 600E Potentiostat in a one-compartment cell equipped with a three-electrode system arrangement. The three-electrode system included a saturated calomel electrode as the reference electrode, a platinum wire as the auxiliary electrode, and a glassy carbon electrode (GCE, d = 2 mm) as the working electrode. The GCE was polished between each sample scan with an aqueous slurry of alumina powder on a microcloth pad. The electrodes were rinsed with distilled water prior to the next scan. All scans were conducted under nitrogen for oxygen displacement and at room temperature (rt, 25 ± 1 °C). All samples were prepared as close to the scan as possible (approximately 2 min each). Each sample (5 mL) contained 0.1 mM catecholic substrate and 1 μM DMSO in 0.1 M phosphate buffer at a pH of 7.4 or 6.0. […] The cyclic voltammograms for the compounds at both pH 6.0 and 7.4 are available in Figures S40–S51.

[2] = target: L-DOPA 2,3-dioxygenase from S. lincolnensis (LmbB1) (Streptomyces lincolnensis, UniProt Q54354); assay: UV-visible steady-state assay of L-DOPA 2,3-dioxygenase (LmbB1); format: biochemical; conditions: for kSP, O2 (μM^-1 min^-1) at pH 7.5 relative to L-DOPA x 100 for LmbB1: percentage of the value for L-DOPA; for activity / turnover as substrate: aerobic reaction observed by UV–visible spectroscopy; for kcat at 22 °C and 100% O2 saturation / kSP,O2 × 10^2 at 22 °C / kSP catechol × 10^2 at 22 °C: S. lincolnensis enzyme; for kcat at 22 °C and 100% O2 saturation: pH 7.5; for kSP,O2 × 10^2 at 22 °C / kSP catechol × 10^2 at 22 °C: values are kSP × 10^2; for kSP catechol × 10^2 at 22 °C: kSP = kcat/KM
Protocol: (§1) Purified, reconstituted L-DOPA 2,3-dioxygenases were assessed for activity by monitoring the cleavage of catecholic substrates using UV–visible spectroscopy. 3,4-Dihydroxyhydrocinnamic acid (DHHCA, 3) was purchased from Sigma-Aldrich. 6-CyanoDHHCA (5) and 6-bromoDHHCA (4) were synthesized as described above.
(§2) Molecular oxygen (AirGas) was bubbled directly into the reaction buffer through a glass-bonded silica gas diffuser (Bubblemac Industries, Inc.) or as a gas mixture blended with air (AirGas). Solutions were bubbled with oxygen for several minutes prior to use and for the duration of the experiment. To determine the K M for oxygen (i.e., K MO2), L-DOPA 2,3-dioxygenases (0.25–4.0 μM) were reacted with a saturating concentration of the catecholic substrate DHHCA/6-X-DHHCA derivatives (2–10× the K M sufficient to achieve k cat) and various oxygen concentrations (21–100% or 270–1300 μM at 22 °C). The concentration of oxygen was varied by changing the percentage of oxygen in the blend using a galvanic oxygen sensor and oxygen monitor (AirGas) and then bubbling solutions, as described above. Molecular oxygen percentages were converted to molar concentrations using a reference temperature of 22 °C. The reaction of L-DOPA 2,3-dioxygenases with DHHCA/6-X-DHHCA derivatives as a function of oxygen concentration was followed by the appearance of the steady-state cleavage product by using UV–visible spectroscopy.
(§3) The extinction coefficients for steady-state cleavage products of DHHCA and synthetic 6-X-DHHCA derivatives were determined by reacting various concentrations of DHHCA/6-X-DHHCA derivatives at 22 °C with a 10-fold stoichiometric excess of enzyme (quantified by Fe^II–see Reconstitution) in 50 mM HEPES buffer with 154 mM NaCl at pH 7.5, bubbled with 100% oxygen to a final concentration of 780–910 μM, depending on the volume of oxygenated buffer that comprised the reaction (60–70%). Substrate solutions were prepared from authentic synthetic standards using an analytical balance, and reactions were run to completion as assessed by the appearance of the steady-state product. The λmax and extinction coefficients of DHHCA, 6-cyanoDHHCA, and 6-bromoDHHCA were determined herein as ε380 = 40 740 ± 820 M^–1cm^–1, ε385 = 33 256 ± 484 M^–1cm^–1, and ε380 = 35 282 ± 1190 M^–1cm^–1, respectively (Figure S52).
(§4) Steady-state kinetic data were obtained through a UV–visible spectroscopic assay. Initial rates were obtained from the slopes of the linear regions of the progress curves and plotted versus substrate concentration to yield a hyperbola, which was analyzed using the Michaelis–Menten expression and nonlinear least-squares fitting (NLSF) with Origin 6.0 (Microcal). Two possible derivations of the Michaelis–Menten expression were used: 1) the traditional expression y = k cat × x/(K M + x), where y is Rate/E 0 or the rate of product formation (μM/min) divided by the starting enzyme concentration (μM), x is substrate concentration (μM) and k SP (also known as k cat × K M ^–1)–that is, the second-order rate constant of enzyme and substrate–is extracted from the fitted constants; or 2) the alternative derivation that extracts k SP and k cat directly from the fit: y = (k SP × x)/((1 + k SP × x)/k cat), and where y is Rate/E 0 or the rate of product formation (μM/min) divided by the starting enzyme concentration (μM), x is substrate concentration (μM), k SP is equivalent to k cat×K M ^–1, and K M is extracted from k cat/k cat×K M ^–1.

[3] = target: L-DOPA 2,3-dioxygenase from S. hygroscopicus jingganensis (ShjDDO) (Streptomyces hygroscopicus, UniProt H2JL11); assay: UV-visible steady-state assay of L-DOPA 2,3-dioxygenase (ShjDDO); format: biochemical; conditions: for kSP, O2 (μM^-1 min^-1) at pH 7.5 relative to L-DOPA x 100 for ShjDDO: percentage of the value for L-DOPA; for kcat at 22 °C and 100% O2 saturation / kSP,O2 × 10^2 at 22 °C / kSP catechol × 10^2 at 22 °C: S. hygroscopicus jingganensis enzyme; for kcat at 22 °C and 100% O2 saturation: pH 7.5; for kSP,O2 × 10^2 at 22 °C / kSP catechol × 10^2 at 22 °C: values are kSP × 10^2; for kSP catechol × 10^2 at 22 °C: kSP = kcat/KM; for activity / turnover as substrate: ShjDDO, aerobic reaction observed by UV–visible spectroscopy
Protocol: as §1, §2, §3, §4

[4] = parameters: method as in Biochemistry 2021, 60, 32, 2492–2507; conditions: similarly 6-substituted dopamine; ref Biochemistry 2021, 60, 32, 2492–2507; cited from earlier work
[5] = Determination of pKa values by spectrophotometric titration; conditions: for Catecholic pKa value relative to L-DOPA x 100: percentage of the value for L-DOPA; for pK a value: first catecholic deprotonation, determined spectroscopically from pH 3 to 12.5
Protocol: A buffer system utilizing five different buffers was prepared to cover the pH range of 3.0 to 12.50. A Thermo Scientific Orion Star A211 pH meter was used to measure and determine the pH of each buffer. The pH meter was calibrated using three- and four-point calibration with pH values of 4.00, 7.01, and 10.01 and 4.00, 7.01, 10.01, and 12.00, respectively.
The buffer systems were prepared as previously described and included: NaOAc/HOAc buffers (C = 0.1 M; I = 0.1 M) were used to cover the pH range of 3.0 to 5.50. KH2PO4/K2HPO4 buffers (C = 0.05 M; I = 0.1 M) were used to cover the pH range of 6.00 to 8.00. CHES buffers (C = 0.05 M; I = 0.1 M) were used to cover the pH range of 8.50 to 10.50. Na2HPO4/Na3PO4 buffers (C = 0.05 M; I = 0.1 M) were used to cover the pH range of 11.00 to 12.00. KCl buffers (C = 0.1 M; I = 0.1 M) were used to cover the pH range of 12.00 to 12.50.
The absorbance spectra of the compounds were determined at each pH as previously described. Briefly, a stock solution was prepared for each compound by weighing 2 mg of the compound using a high-precision analytical balance. Each compound was then dissolved in DMSO at a concentration of 10 mM. A UV-transparent 96-well microplate (Corning clear acrylic 96-well UV plate with a UV-transparent flat bottom) was loaded with 196 μL of buffer solution and 4 μL of the catechol stock in each well to get a final concentration of 200 μM. DMSO (4 μL) was added to 196 μL of the appropriate buffer to produce a blank solution for each buffer.
The 96-well plate was loaded into the microplate reader and incubated at 30 °C and shaken for 10 min before the reading. Absorbance readings were completed by using a Synergy HTX 15032517 microplate reader. Each well was read at wavelengths from 210 to 600 nm with 2-nm increments for each scan over a duration of 60 min.
The data were analyzed as previously described. Raw UV-spectra scans were exported to the Excel program. They were first processed by subtracting the reading of the blank solutions from the reading of each compound at the corresponding wavelengths. […] Finally, the spectral difference between the pH 3.0 buffer and the spectra at all other pH values was plotted. Additionally, the spectral difference between the pH 4.0 buffer and the spectra at all other higher pH values was plotted. The wavelengths for the maximum positive and negative absorbance were determined by using the graphs of the spectral difference plots, both for the pH 3.0 and pH 4.0 spectral difference plots. The absolute maximum positive and total absorbance differences at these chosen wavelengths were plotted against the pH of each buffer. The data were imported into the Origin 6.0 program, and the pK a values were determined with a nonlinear regression using eq : 1 Absorbancetotal=εHA−εA−[10^(pH−pKa)]/1+10^(pH−pKa)×[St]
εHA is the extinction coefficients of the acid form of the compound, and εA ^– is the extinction coefficient of the base form of the compound (i.e., the minima and maxima of the absorbance difference curve, respectively), and [S t] is the total compound concentration.

[6] = test system: S. hygroscopicus jingganensis L-DOPA 2,3-dioxygenase (ShjDDO); assay: Presteady state stopped-flow kinetic assay, modeled with KinTek Explorer; format: biochemical, Streptomyces hygroscopicus jingganensis; conditions: ratio k6/k7; presteady state with ShjDDO
Protocol: Reaction temperature was controlled at 14 ± 0.5 °C by a circulating water bath. […] Stock solutions of 6-[…] prepared in DMSO. […] ShjDDO was reconstituted with iron(II) sulfate heptahydrate, gel filtered into the reaction buffer, and loaded into the drive syringe. […] Fifteen to twenty progress curves from the same experimental conditions were averaged in the KinTek Stopped Flow software and exported to KinTek Explorer for modeling. Between experiments, the instrument drive syringes were cleaned with acid, base, and water; soaked in 1% Hellmanex detergent for 30 min at ∼30-35 °C; thoroughly rinsed with water; and stored in 10% ethanol. […] state kinetic data were analyzed by fitting to simulated mechanisms using the KinTek Explorer software (KinTek Corp, Austin, TX). KinTek Explorer simulates experimental results by using direct numerical integration of rate equations for the kinetic model and yields estimates for the rate constants of microscopic steps. […] state experiments were modeled using KinTek Explorer according to a defined reaction pathway, as described in the Results and Discussion and shown in Scheme . The extinction coefficients of the DHHCA and 6-[…] semialdehyde products were independently determined as described above and fixed during fitting. Some rates were fixed as either “fast” (i.e., 1 × 10^9) or very slow (1 × 10^-12, i.e., ∼0) as described in the text. The equilibrium represented by k 1 and k -1 was fixed at the ratio of substrate charge states as predicted by the experimentally determined pK a values (Table ) and the Henderson-Hasselbach equation. Extinction coefficients were fitted and/or fixed during fitting as described in the text and interpreted using the observable expression: […], where a is the extinction coefficient applied to ESQ, b is the independently experimentally determined extinction coefficient on P, and c is a y-axis offset. […] ESO2 is the ternary complex of enzyme, substrate, and oxygen. ESQ represents the putative semiquinone intermediate, a UV-absorbing species, and ESQ_X is the species formed from the nonproductive quenching of the semiquinone. […] EP is the enzyme-product complex, and P is the free semialdehyde product. P can then degrade nonenzymatically to the spectroscopically silent P_X. Errors on each fit were calculated from 2[…] at 0.83 Chi^2. The KinTek Explorer program FitSpace explores the uniqueness of a particular fit to the data by measuring the dependence of the sum square error (SSE) on each pair of parameters, while allowing all other parameters to vary in seeking the best fit. […]

[7] = LmbB1 active site, ratio to DHHCA
[8] = ShjDDO active site, ratio to DHHCA

Sequence of L-DOPA 2,3-dioxygenase from S. hygroscopicus jingganensis (ShjDDO) (H2JL11 1-162): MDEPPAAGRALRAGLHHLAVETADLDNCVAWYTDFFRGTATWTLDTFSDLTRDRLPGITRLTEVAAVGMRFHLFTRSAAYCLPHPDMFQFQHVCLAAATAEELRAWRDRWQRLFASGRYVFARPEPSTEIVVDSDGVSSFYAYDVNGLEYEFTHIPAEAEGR
Sequence of L-DOPA 2,3-dioxygenase from S. lincolnensis (LmbB1) (Q54354 entry or part of it): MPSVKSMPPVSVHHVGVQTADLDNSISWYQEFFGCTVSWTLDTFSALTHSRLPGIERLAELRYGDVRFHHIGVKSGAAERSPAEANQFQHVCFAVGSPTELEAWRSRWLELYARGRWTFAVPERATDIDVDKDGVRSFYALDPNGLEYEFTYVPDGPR

SMILES	E1/2 (mV) at pH 7.4 relative to L-DOPA x 100 [1]	kSP, O2 (μM^-1 min^-1) at pH 7.5 relative to L-DOPA x 100 for LmbB1 [2]	kSP, O2 (μM^-1 min^-1) at pH 7.5 relative to L-DOPA x 100 for ShjDDO [3]	pK a value of dopamine counterpart [4]	Catecholic pKa value relative to L-DOPA x 100 [5]	(E p)a Oxidation ([1]; pH 6.0)	(E p)c Reduction ([1]; pH 6.0)	E1/2 ([1]; pH 6.0)	Ipa/Ipc ([1]; pH 6.0)	ΔE p ([1]; pH 6.0)	(E p)a Oxidation ([1]; pH 7.4)	pK a value [5]	(E p)c Reduction ([1]; pH 7.4)	E1/2 ([1]; pH 7.4)	Ipa/Ipc ([1]; pH 7.4)	ΔE p ([1]; pH 7.4)	activity / turnover as substrate ([2]; LmbB1)	kcat at 22 °C and 100% O2 saturation [2]	kSP,O2 × 10^2 at 22 °C [2]	activity / turnover as substrate [3]	other results
NCCc1cc(O)c(O)cc1Br [Compound 6-bromoDA, 6-bromodopamine, reference compound]	77%	27%	9%	8.09 ± 0.03	92%																
NCCc1cc(O)c(O)cc1[N+](=O)[O-] [dopamine counterpart of 6-NitroDHHCA (6), 6-nitrodopamine]				6.23 ± 0.03																	
N[C@@H](Cc1ccc(O)c(O)c1)C(=O)O [L-DOPA (1), L-3,4-dihydroxyphenylalanine]		100%	100%		100%	362 mV	101 mV	231.5 mV	5.90	261 mV	315 mV	8.81 ± 0.19									
O=C(O)CCc1cc(O)c(O)cc1Br [6-BromoDHHCA (4), 3-(2-bromo-4,5-dihydroxyphenyl) propanoic acid]	63%	4%	~11%		95%	267 mV	154 mV	210.5 mV	1.43	113 mV	195 mV	8.36 ± 0.07	59 mV	127 mV	1.21	136 mV	measurable activity	1.6 × 10^–1 ± 4.6 × 10 ^–3 sec^–1	3.5 ± 0.5 μM^–1 min^–1	measurable activity	K M tighter than DHHCA ([2]; LmbB1, ratio to DHHCA): 4.5 fold; k SP,O2 slower than DHHCA [2, 7]: more than 5 fold; k cat slower than DHHCA [2, 7]: more than 10 fold; kSP catechol × 10^2 at 22 °C [2]: 4.6 ± 0.5 μM^–1 min^–1; kcat at 22 °C and 100% O2 saturation [3]: 1.5 ± 0.1 sec^–1; kSP,O2 × 10^2 at 22 °C [3]: 15.8 ± 1.0 μM^–1 min^–1; kSP catechol × 10^2 at 22 °C [3]: 9.8 ± 1.9 μM^–1 min^–1; k SP,O2 compared with DHHCA ([3]; ShjDDO active site): equivalent to DHHCA (3) within error; K M weaker than DHHCA [3, 8]: 2 fold; k cat faster than DHHCA [3, 8]: 2 fold
O=C(O)CCc1ccc(O)c(O)c1 [DHHCA (3), 3,4-dihydroxyhydrocinnamic acid]	59%	23%	13%		101%	388 mV		198.5 mV	2.54	379 mV	333 mV	8.87 ± 0.12	–95 mV	119 mV	1.30	428 mV	measurable activity	2.1 ± 0.2 sec^–1	19.2 ± 3.2 μM^–1 min^–1	measurable activity	kSP catechol × 10^2 at 22 °C [2]: 13.4 ± 2.5 μM^–1 min^–1; kcat at 22 °C and 100% O2 saturation [3]: 6.7 × 10^–1 ± 5.0 × 10 ^–2 sec^–1; kSP,O2 × 10^2 at 22 °C [3]: 17.7 ± 2.6 μM^–1 min^–1; kSP catechol × 10^2 at 22 °C [3]: 9.5 ± 2.3 μM^–1 min^–1; productive formation of EI (k 6) faster than the rate of inactivation (k 7) [6]: ~40 times
O=C(O)CCc1cc(O)c(O)cc1[N+](=O)[O-] [6-NitroDHHCA (6), 3-(4,5-dihydroxy-2-nitrophenyl) propanoic acid]						444 mV					288 mV	6.94 ± 0.06					no turnover was detected; also recorded: did not undergo turnover			no turnover was detected; also recorded: did not undergo turnover	
